Like-named read-outs stand apart in the source and are kept apart here.
What was measured:
[1] = test system: antiserum raised in rabbits against estriol-6-CMO-BSA; assay: Assay for estriol using 2-(methylseleno)-ethylamine-Se75 conjugate of estriol-6CMO; format: binding, rabbit; settings: 300 pg label, antiserum 1:200
Description: Into each assay tube was dispensed 0.1M phosphate buffer containing 5% human serum (pH 7.0; 200 μl), antiserum raised in rabbits against estriol-6-CMO-BSA and diluted 1 : 200 in 0.1M phosphate buffer containing 5% human serum (200 μl), and 2-(methylseleno)-Ethylamine-Se 75 conjugate of estriol-6-CMO (300 pg; 18 Ci/m mol).

[2] = test system: antiserum raised in rabbit against estriol-6-CMO-BSA; settings: 4 ng label, antiserum 1:200
Description: Into each assay tube was dispensed 0.1M phosphate buffer containing 5% human serum (pH 7.0; 200μl), antiserum raised in rabbit against estriol-6-CMO-BSA and diluted 1:200 in 0.1M Phosphate buffer containing 5% human serum (200μl), and selenomethionine-Se75 conjugate of estriol-6-CMO (4 ng; 400 mCi/m mol). Standard amounts of estriol (1.25 ng, 10 ng and 20 ng) in human serum were added to each assay tube; to one tube was added buffer instead of antiserum as a blank. The contents of each tube were mixed and incubated at room temperature for one hour. Ammonium sulphate solution was then added (5.4g (NH4)2 SO4 = 10 ml H2 O; 500 μl) and after mixing, the solutions were centrifuged. The supernatant was removed and the precipitate counted in a gamma counter. The percentage of total counts bound to the precipitate was calculated.

Compound: C[75Se]CCNC(=O)CON=C1C[C@@H]2[C@H](CC[C@]3(C)[C@@H](O)[C@H](O)C[C@@H]23)c2ccc(O)cc21 [2-(methylseleno)-ethylamine - Se 75 conjugate of estriol-6-carboxymethyloxime]
- % of total counts bound minus blanks ([1]; 0 ng estriol added): 45.9%
- % of total counts bound minus blanks ([1]; 1.5 ng estriol added): 37.5%
- % of total counts bound minus blanks ([1]; 3.1 ng estriol added): 35.6%
- % of total counts bound minus blanks ([1]; 6.3 ng estriol added): 32.0%
- % of total counts bound minus blanks ([1]; 12.5 ng estriol added): 29.2%
- % of total counts bound minus blanks ([1]; 25 ng estriol added): 24.7%

Compound: selenomethionine-Se75 conjugate of estriol-6-carboxymethyloxime
- % of total counts bound minus blank ([2]; 0 ng estriol added): 59.1%
- % of total counts bound minus blank ([2]; 1.25 ng estriol added): 55.3%
- % of total counts bound minus blank ([2]; 10 ng estriol added): 44.3%
- % of total counts bound minus blank ([2]; 20 ng estriol added): 39.0%

From patent publication US4030886A, “Saturation analysis” (The Radiochemical Centre Limited, priority 1973, dated 1977)
